Key:
Format in all cases: cell-based
[1] = tested on: Propionibacterium acnes; assay: Viable cell count after xanthorrizol treatment; settings: xanthorrizol 0.002%; 37° C.
Procedure: To measure the antibacterial activity of xanthorrizol, it was dissolved in DMSO to give specimens with a concentration of 0.001%, 0.0015% and 0.002%, respectively, and incubated with test microorganisms([…] CFU/ml) at 37° C. for 1, 2, 5, and 10 hours, respectively. Then, they were subjected to serial 10-fold dilution, incubated with an acne-causing pathogen, Propionibacterium acnes for 24 to 48 hours, and counted the viable cell number of the pathogen. FIG. 2 is a graph showing antibacterial activity of xanthorrizol in terms of viable cell numbers, where ♦ represents DMSO, control; ▪, 0.001% crude extract; ▾, 0.0015% crude extract; x, 0.002% crude extract, respectively.

[2] = tested on: Streptococcus mutans; assay: Thermal stability: well diffusion analysis after heating; settings: 0.1% in DMSO heated 30 minutes
Procedure: Xanthorrizol was dissolved in DMSO to prepare specimens with a concentration of 0.1%. The specimens were heated for 30 minutes at the temperature of 60° C., 70° C., 80° C., 90° C., 100° C. and 121° C., respectively. Then, antibacterial activity against Streptococcus mutans was determined for each specimen by well diffusion analysis, whose results are shown in Table 13.

[3] = tested on: the pathogens; assay: Change in cell morphology (TEM) after xanthorrizol treatment; settings: 10 μg/ml xanthorrizol for 30 minutes
Procedure: To assess the extent of xanthorrizol-mediated cell damage, 10 μg/ml xanthorrizol was treated to the pathogens for 30 minutes. […] Further, it was assumed that through the efflux of intracellular macromolecules and ions, the permeability of cell wall is increased to accelerate the efflux of intracellular components, which in turn inactivates cellular enzymes and causes the malfunction of cell wall.

For `CC(C)=CCC[C@@H](C)c1ccc(C)c(O)c1` [xanthorrizol, 1,3,5,10-bisabolatetraen-3-ol], the “Eradication of the microorganism (viable cell number, FIG. 2)” value [1] was “eradicated almost completely in one hour”, the “Diameter of Clear Zone” value ([2]; Treatment Temp. 60 ° C.) was 17 mm and the “Diameter of Clear Zone” value ([2]; Treatment Temp. 70 ° C.) was 16 mm. The “Diameter of Clear Zone” value ([2]; Treatment Temp. 80 ° C.) was 17 mm, the “Diameter of Clear Zone” value ([2]; Treatment Temp. 90 ° C.) was 17 mm and the “Diameter of Clear Zone” value ([2]; Treatment Temp. 100 ° C.) was 18 mm. For the same molecule, the “Diameter of Clear Zone” value ([2]; Treatment Temp. 121 ° C.) was 17 mm and the “cell morphology (TEM)” value [3] was “cell wall expansion was detected, followed by cell disruption”.
